Data: US5318967A, “2,3,3a,4,5,9b-hexahydro-1H-benzo[e]indole derivatives” (priority 1991, dated 1994)

target: acetylcholine esterase (Homo sapiens, UniProt P22303); test: biochemical; conditions: read-out: IC 50 for acetylcholine esterase inhibition
Description: The determination of the acetylcholine esterase inhibition was effected according to the method of Ellmann et al., Biochem. Pharmacol. 7 (1961) 88, and/or according to the method of Johnson et al., Analytical Biochemistry 64 (1975), 229.

acetylcholine esterase, sequence (P22303 32-614): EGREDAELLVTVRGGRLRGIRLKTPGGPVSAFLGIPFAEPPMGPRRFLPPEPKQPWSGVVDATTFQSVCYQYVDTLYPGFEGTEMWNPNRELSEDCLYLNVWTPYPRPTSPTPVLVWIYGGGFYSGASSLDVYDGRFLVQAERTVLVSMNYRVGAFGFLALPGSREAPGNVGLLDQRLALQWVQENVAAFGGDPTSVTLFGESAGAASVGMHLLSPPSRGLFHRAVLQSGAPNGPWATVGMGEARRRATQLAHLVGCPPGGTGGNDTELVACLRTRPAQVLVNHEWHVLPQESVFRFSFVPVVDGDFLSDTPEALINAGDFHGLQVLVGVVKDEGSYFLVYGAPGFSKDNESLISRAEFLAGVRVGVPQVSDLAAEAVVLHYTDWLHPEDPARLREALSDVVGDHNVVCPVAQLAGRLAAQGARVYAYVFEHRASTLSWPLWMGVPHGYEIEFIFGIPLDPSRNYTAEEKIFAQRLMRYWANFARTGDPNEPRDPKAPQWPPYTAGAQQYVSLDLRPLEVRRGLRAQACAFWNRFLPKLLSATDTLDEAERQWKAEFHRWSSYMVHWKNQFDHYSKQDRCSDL

Row | SMILES | IC50
1 | CN(C)C(=O)Oc1cccc2c1CC[C@H]1[C@@H]2CCN1CCCCCN1C(=O)c2ccccc2C1=O (racemic) [rac-3-[5-(1,3-dioxo-isoindolin-2-yl)-pentyl]-cis-2,3,3a,4,5,9b-hexahydro-1H-benzo[e]indol-6-yl dimethylcarbamate] | 2.7 nM
2 | CCCNC(=O)Oc1cccc2c1CC[C@H]1[C@@H]2CCN1CCC1CCCCC1 (single isomer, unassigned) [(+)-cis-3-(2-cyclohexylethyl)-2,3,3a,4,5,9b-hexahydro-1H-benzo[e]indol-6-yl propylcarbamate] | 2.6 nM
3 | CN(C)C(=O)Oc1cccc2c1CC[C@H]1[C@@H]2CCN1CCCCCCN1C(=O)CC(C)(C)CC1=O (racemic) [rac-3-[6-(4,4-dimethyl-2,6-dioxo-piperidin-1-yl)-hexyl]-cis-2,3,3a,4,5,9b-hexahydro-1H-benzo[e]indol-6-yl dimethylcarbamate] | 8 nM
4 | CN(C)C(=O)Oc1cccc2c1CC[C@@H]1[C@H]2CCN1CCCCN (relative stereo) [rac-3-(4-aminobutyl)-2,3,3a,4,5,9b-hexahydro-1H-cis-benzo[e]indol-6-yl dimethylcarbamate] | 267 nM
5 | CCCCNC(=O)Oc1cccc2c1CC[C@H]1[C@@H]2CCN1CCC1CCCCC1 (racemic) [rac-cis-3-(2-cyclohexylethyl)-2,3,3a,4,5,9b-hexahydro-1H-benzo[e]indol-6-yl butylcarbamate] | 793 nM
6 | CN(C)C(=O)Oc1cccc2c1CC[C@H]1[C@@H]2CCN1CCC1CCCC1 (racemic) [rac-3-(2-cyclopentylethyl)-cis-2,3,3a,4,5,9b-hexahydro-1H-benzo[e]indol-6-yl dimethylcarbamate] | 30 nM
7 | CN(C)C(=O)Oc1cccc2c1CC[C@@H]1[C@H]2CCN1CCCCCCNC(=O)c1ccccc1 (relative stereo) [rac-3-(6-benzoylamino-hexyl)-2,3,3a,4,5,9b-hexahydro-1H-cis-benzo[e]indol-6-yl-dimethylcarbamate] | 11 nM
8 | CN(C)C(=O)Oc1cccc2c1CC[C@H]1[C@@H]2CCN1C1CCCC1 (racemic) [rac-cis-3-cyclopentyl-2,3,3a,4,5,9b-hexahydro-1H-benzo[e]indol-6-yl dimethylcarbamate] | 95 nM
9 | CN(C)C(=O)Oc1cccc2c1CC[C@H]1[C@@H]2CCN1CCCCCCN1Cc2ccccc2C1=O (racemic) [rac-3-[6-(1-oxo-isoindolin-2-yl)-hexyl]-cis-2,3,3a,4,5,9b-hexahydro-1H-benzo[e]indol-6-yl dimethylcarbamate] | 2.9 nM
10 | CC(C)CCN1CC[C@@H]2c3cccc(OC(=O)N(C)C)c3CC[C@@H]21 (racemic) [rac-3-(3-methylbutyl)-cis-2,3,3a,4,5,9b-hexahydro-1H-benzo[e]indol-6-yl dimethylcarbamate] | 67 nM
11 | CN(C)C(=O)Oc1cccc2c1CC[C@H]1[C@@H]2CCN1CCN1CCCCC1 (racemic) [rac-3-(2-piperidin-1-yl-ethyl)-cis-2,3,3a,4,5,9b-hexahydro-1H-benzo[e]indol-6-yl dimethylcarbamate] | 31 nM
12 | CN(C)C(=O)Oc1cccc2c1CC[C@H]1[C@@H]2CCN1CCc1ccccc1 (racemic) [rac-3-phenethyl-cis-2,3,3a,4,5,9b-hexahydro-1H-benzo[e]indol-6-yl dimethylcarbamate] | 47 nM
13 | CN(C)C(=O)Oc1cccc2c1CC[C@H]1[C@@H]2CCN1CCCN1CCOCC1 (racemic) [rac-3-(3-morpholin-4-yl-propyl)-cis-2,3,3a,4,5,9b-hexahydro-1H-benzo[e]indol-6-yl dimethylcarbamate] | 63 nM
14 | CN(C)C(=O)Oc1cccc2c1CC[C@@H]1[C@H]2CCN1CCCCCN1C(=O)[C@H]2CCCC[C@H]2C1=O (relative stereo) [rac-3-[5-(1,3-dioxo-octahydro-cis-isoindol-2-yl)pentyl]-2,3,3a,4,5,9b-hexahydro-1H-cis-benzo[e]indol-6-yl dimethylcarbamate] | 7.8 nM
15 | CN(C)C(=O)Oc1cccc2c1CC[C@H]1[C@@H]2CCN1CCCc1ccccc1 (racemic) [rac-3-(3-phenylpropyl)-cis-2,3,3a,4,5,9b-hexahydro-1H-benzo[e]indol-6-yl dimethylcarbamate] | 36 nM
16 | COc1ccc(C(=O)CCCCN2CC[C@@H]3c4cccc(OC(=O)N(C)C)c4CC[C@@H]32)cc1OC (racemic) [rac-3-[4-(3,4-Dimethoxy-benzoyl)-butyl]-cis-2,3,3a,4,5,9b-hexahydro-1H-benzo[e]indol-6-yl dimethylcarbamate] | 1.4 nM
17 | CN(C)C(=O)Oc1cccc2c1CC[C@H]1[C@@H]2CCN1CCCCN1C(=O)CC(C)(C)CC1=O (racemic) [rac-3-[4-(4,4-dimethyl-2,6-dioxo-piperidin-1-yl)-butyl]-cis-2,3,3a,4,5,9b-hexahydro-1H-benzo[e]indol-6-yl dimethylcarbamate] | 13 nM
18 | CN(C)C(=O)Oc1cccc2c1CC[C@H]1[C@@H]2CCN1CCCCN1Cc2ccccc2C1=O (racemic) [rac-3-[4-(1-oxo-isoindolin-2-yl)-butyl]-cis-2,3,3a,4,5,9b-hexahydro-1H-benzo[e]indol-6-yl dimethylcarbamate] | 8.6 nM

Row | SMILES | IC50
19 | CN(C)C(=O)Oc1cccc2c1CC[C@H]1[C@@H]2CCN1CCCC1CCCCC1 (racemic) [rac-3-(3-cyclohexylpropyl)-cis-2,3,3a,4,5,9b-hexahydro-1H-benzo[e]indol-6-yl dimethylcarbamate] | 19 nM
20 | CN(C)C(=O)Oc1cccc2c1CC[C@H]1[C@@H]2CCN1CCCCNC(=O)c1ccccc1 (racemic) [rac-cis-3-(4-benzoylaminobutyl)-2,3,3a,4,5,9b-hexahydro-1H-benzo[e]indol-6-yl dimethylcarbamate] | 16 nM
21 | CNC(=O)Oc1cccc2c1CC[C@H]1[C@@H]2CCN1CCC1CCCCC1 (single isomer, unassigned) [(+)-cis-3-(2-cyclohexylethyl)-2,3,3a,4,5,9b-hexahydro-1H-benzo[e]indol-6-yl methylcarbamate] | 18 nM
22 | CN(C)C(=O)Oc1cccc2c1CC[C@H]1[C@@H]2CCN1CCCCCN1C(=O)CC(C)(C)CC1=O (racemic) [rac-3-[5-(4,4-dimethyl-2,6-dioxo-piperidin-1-yl)-pentyl]-cis-2,3,3a,4,5,9b-hexahydro-1H-benzo[e]indol-6-yl dimethylcarbamate] | 11 nM
23 | CN(C)C(=O)Oc1cccc2c1CC[C@@H]1[C@H]2CCN1CCCCCN (relative stereo) [rac-3-(5-aminopentyl)-2,3,3a,4,5,9b-hexahydro-1H-cis-benzo[e]indol-6-yl dimethylcarbamate] | 111 nM
24 | COc1ccc(C(=O)CCCCCN2CC[C@@H]3c4cccc(OC(=O)N(C)C)c4CC[C@@H]32)cc1OC (racemic) [rac-3-[5-(3,4-dimethoxy-benzoyl)-pentyl]-cis-2,3,3a,4,5,9b-hexahydro-1H-benzo[e]indol-6-yl dimethylcarbamate] | 1.2 nM
25 | CN(C)C(=O)Oc1cccc2c1CC[C@@H]1[C@H]2CCN1CCCCNC(=O)c1ccc(S(C)(=O)=O)cc1 (relative stereo) [rac-N-[4-(6-dimethylcarbamoyloxy)-cis-2,3,3a,4,5,9b-hexahydro-1H-benzo[e]indol-3-yl)-butyl]-4-methanesulfonylbenzamide] | 6.7 nM
26 | CN(C)C(=O)Oc1cccc2c1CC[C@H]1[C@@H]2CCN1CCCC(=O)c1ccccc1 (racemic) [rac-3-(3-benzoyl-propyl)-cis-2,3,3a,4,5,9b-hexahydro-1H-benzo[e]indol-6-yl dimethylcarbamate] | 8.3 nM
27 | CCNC(=O)Oc1cccc2c1CC[C@H]1[C@@H]2CCN1CCC1CCCCC1 (single isomer, unassigned) [(+)-cis-3-(2-cyclohexylethyl)-2,3,3a,4,5,9b-hexahydro-1H-benzo[e]indol-6-yl ethylcarbamate] | 2460 nM
28 | CN(C)C(=O)Oc1cccc2c1CC[C@@H]1[C@H]2CCN1CCCCCNC(=O)c1ccccc1 (relative stereo) [rac-3-(5-benzoylaminopentyl)-2,3,3a,4,5,9b-hexahydro-1H-cis-benzo[e]indol-6-yl dimethylcarbamate] | 15.2 nM
29 | CN(C)C(=O)Oc1cccc2c1CC[C@H]1[C@H]2CCN1CCC1CCCCC1 (single isomer, unassigned) [(+)-trans-3-(2-cyclohexylethyl)-2,3,3a,4,5,9b-hexahydro-1H-benzo[e]indol-6-yl dimethylcarbamate] | 22 nM
30 | CN(C)C(=O)Oc1cccc2c1CC[C@H]1[C@@H]2CCN1CCCC(=O)c1ccc(F)cc1 (racemic) [rac-3-[3-(4-fluoro-benzoyl)-propyl]-cis-2,3,3a,4,5,9b-hexahydro-1H-benzo[e]indol-6-yl dimethylcarbamate] | 6.8 nM
31 | CN(C)C(=O)Oc1cccc2c1CC[C@H]1[C@@H]2CCN1CCCCCN1Cc2ccccc2C1=O (racemic) [rac-3-[5-(1-oxo-isoindolin-2-yl)-pentyl]-cis-2,3,3a,4,5,9b-hexahydro-1H-benzo[e]indol-6-yl dimethylcarbamate] | 4.5 nM
32 | CN(C)C(=O)Oc1cccc2c1CC[C@H]1[C@@H]2CCN1CCCC1CCCC1 (racemic) [rac-cis-3-(3-cyclopentyl-propyl)-2,3,3a,4,5,9b-hexahydro-1H-benzo[e]indol-6-yl dimethylcarbamate] | 14 nM
33 | CCN(C)C(=O)Oc1cccc2c1CC[C@H]1[C@@H]2CCN1CCC1CCCCC1 (single isomer, unassigned) [(+)-cis-3-(2-cyclohexylethyl)-2,3,3a,4,5,9b-hexahydro-1H-benzo[e]indol-6-yl ethylmethylcarbamate] | 3.5 nM
34 | CN(C)C(=O)Oc1cccc2c1CC[C@H]1[C@@H]2CCN1CC1CCCCC1 (racemic) [rac-3-cyclohexylmethyl-cis-2,3,3a,4,5,9b-hexahydro-1H-benzo[e]indol-6-yl dimethylcarbamate] | 36 nM
35 | CN(C)C(=O)Oc1cccc2c1CC[C@H]1[C@@H]2CCN1CCCCC1CCCCC1 (racemic) [rac-cis-3-(4-cyclohexyl-butyl)-2,3,3a,4,5,9b-hexahydro-1H-benzo[e]indol-6-yl dimethylcarbamate] | 35 nM
